# Experimental data as given in US7425579B2, “Methods for inhibiting activity of polyamine transporters” (Universite Laval, priority 1998, dated 2008).
# Experiments:
# [1] = Bioavailability of BNSD-X in drinking water: plasma and erythrocyte concentrations; assay type: in vivo, CD-1 mice; settings: for Erythrocyte concentration, Spermidine / Erythrocyte concentration, Spermine / Plasma concentration, BNSD-X / Plasma concentration, Putrescine / Plasma concentration, Spermidine / Plasma concentration, Spermine: mean±S.E.
# Description: To determine the bioavailability of BNSD-X, escalating doses of BNSD-X were dissolved in the drinking water (0, 0.25, 0.5, 1, 2 and 4%, w/v) and were made available to CD-1 mice (n=6/group) ad libitum. Animals were sacrificed after 96 h, and blood was immediately collected to determine the concentration of BNSD-X and polyamines in plasma and erythrocytes by HPLC using the dansylation method (Kabra et al. (1986) J. Chromatogr. 380:19-32).
# The suitability of BNSD-X as an in vivo inhibitor of polyamine transport was next assessed in the mouse. We first determined the bioavailability of the compound by adding escalating doses of BNSD-X (0, 0.25, 0.5, 1.0, 2.0 and 4.0% (w/v)) in the drinking water of CD-1 mice. Mice were sacrificed after 4 d and the concentration of BNSD-X and polyamines was determined in plasma and erythrocytes (Tables 3 and 4). […] The plasma concentration reached by the chronic drinking of a 1% (w/v) solution of BNSD-X is thus approximately equal to the Ki value of the drug as an inhibitor of spermidine uptake in breast cancer cells (see Table 1). The drug had no effect on the plasma concentration of either putrescine, spermidine or spermine. […] These pharmacokinetic properties indicate that BNSD-X can be administered by a very convenient route to animals up to a dose sufficient in principle to inhibit the major fraction of the uptake of spermidine from the plasma.
# [2] = test system: CHO-MG cells; test: Potentiation of DFMO-induced cytostasis in polyamine transport-deficient CHO-MG cells; assay type: cell-based, Chinese hamster; settings: 2 mM DFMO; 4 d; polyamine transport mutant
# Description: (§1) FIGS. 9A and 9B are graphs showing that potentiation of DFMO-induced cytostasis by a compound used in a method according to a preferred embodiment of the invention requires a functional polyamine transport system. In particular, CHO-TOR cells (A) and their polyamine transport-deficient mutant subline CHO-MG (B) were grown in medium containing 1 mM aminoguanidine and the indicated concentration of spermidine, in the presence of 2 mM DFMO (●), BNSD-X (□), DFMO+BNSD-X (▪), or vehicle only (∘). Cells were harvested after 4 d for determination of total DNA/well. Data are presented as the mean±SD for triplicate cultures from one representative experiment;
# (§2) To determine the ability of polyamine transport antagonists to potentiate DFMO-induced inhibition of cell proliferation in the presence of exogenous polyamines, cells were grown for the indicated period in growth medium supplemented with 1 mM aminoguanidine, and either DFMO (1 to 5 mM), the indicated transport inhibitor (50 or 100 μM), or the combination thereof, as well as increasing concentrations of spermidine (0.1 to 300 μM). Fresh medium was added every other day, and cell mass was determined at various time points during the period of exponential growth, or at the end of the experimental period. […]
# [3] = test system: CHO-TOR cells; test: Potentiation of DFMO-induced cytostasis in CHO-TOR cells; assay type: cell-based, Chinese hamster; settings: 2 mM DFMO; 4 d
# Description: as §1, §2
# [4] = test system: T-47D cells; test: Effect of inhibitors on T-47D cell proliferation (DNA content); assay type: cell-based, human; settings: T-47D cells, 9 d
# Description: FIGS. 3A and 3B are graphs showing the effect compounds used in a method according preferred embodiment of the present invention, on cell proliferation. In particular, they relate to the effect of selected BSD and BNSD derivatives on T-47D cell proliferation. Cells were incubated for 9 d with the indicated concentrations of BSD-2 (∘), BNSD-4 (●), BSD-4 (□), BNSD-6 (▪), BSD-10 (Δ), BSD-4-ene (▴) and BSD-4-yne (▾) in medium containing 1 mM aminoguanidine, and total DNA content per culture was then determined. B, Effect of BNSD-X (N,N,N′,N′-tetrakis-(3-aminopropyl)-p-diaminoxylene) on cell proliferation in various mammalian cell lines. Jurkat (∘), LAN-1 (●), L1210 (□), T-47D (▪), ZR-75-1 (Δ) and MDA-MB-231 (▴) cells were grown to near confluency or saturation (for 4 to 11 d according to the cell line considered) with the indicated concentrations of BNSD-X in the presence of 1 mM aminoguanidine, and total DNA content per culture was then determined. Data are given as the mean±SD for triplicate cultures from one out of at least two identical experiments;
# FIGS. 4A and 4B are graphs showing how compounds used in a method according to a preferred embodiment are differentially sensitive to degradation by BSAO (bovine serum amine oxidase). In particular, T-47D cells were incubated for 9 d with the indicated concentrations of BSD-X (∘), BNSD-X (●), BSD-3 (□) or BNSD-3 (▪) in the absence (A) or presence of 1 mM aminoguanidine (B), and total DNA content per culture was then determined. Data are presented as the mean±SD for triplicate cultures from one representative experiment;
# The effect of transport inhibitors on cell proliferation was evaluated by determination of cell number (L1210, Jurkat) using electronic sizing with a Model ZM Coulter counter (Coulter Electronics, Hialeah, Fla.), or DNA content per culture (for all other cell lines) with the 3,5-diaminobenzoic acid assay. […] Cytotoxicity of the inhibitors was determined in the presence or absence of aminoguanidine, and was confirmed by a trypan blue exclusion assay.
# [5] = 0.25% (w/v) BNSD-X in drinking water, 96 h
# [6] = 0.50% (w/v) BNSD-X in drinking water, 96 h
# [7] = 1.0% (w/v) BNSD-X in drinking water, 96 h
smiles,measurement,setting,value
"NCCCN(CCCN)Cc1ccc(CN(CCCN)CCCN)cc1 [28a, N,N,N′,N′-tetrakis-(3-aminopropyl)-p-diaminoxylene]","Erythrocyte concentration, Spermidine",[1]; [5],1975 ± 236 nmol/L packed erythrocytes
same,"Erythrocyte concentration, Spermine",[1]; [5],60 ± 14 nmol/L packed erythrocytes
same,"Plasma concentration, BNSD-X",[1]; [5],6 ± 3 nM
same,"Plasma concentration, Putrescine",[1]; [5],108 ± 11 nM
same,"Plasma concentration, Spermidine",[1]; [5],147 ± 6 nM
same,"Plasma concentration, Spermine",[1]; [5],24 ± 1 nM
same,"Erythrocyte concentration, Spermidine",[1]; [6],2762 ± 560 nmol/L packed erythrocytes
same,"Erythrocyte concentration, Spermine",[1]; [6],95 ± 12 nmol/L packed erythrocytes
same,"Plasma concentration, BNSD-X",[1]; [6],32 ± 6 nM
same,"Plasma concentration, Putrescine",[1]; [6],106 ± 10 nM
same,"Plasma concentration, Spermidine",[1]; [6],137 ± 18 nM
same,"Plasma concentration, Spermine",[1]; [6],31 ± 6 nM
same,"Erythrocyte concentration, Spermidine",[1]; [7],2079 ± 291 nmol/L packed erythrocytes
same,"Erythrocyte concentration, Spermine",[1]; [7],83 ± 23 nmol/L packed erythrocytes
same,"Plasma concentration, BNSD-X",[1]; [7],129 ± 33 nM
same,"Plasma concentration, Putrescine",[1]; [7],117 ± 19 nM
same,"Plasma concentration, Spermidine",[1]; [7],168 ± 15 nM
same,"Plasma concentration, Spermine",[1]; [7],38 ± 3 nM
same,water consumption,[1]; BNSD-X concentrations higher than 1.0% (2.0 and 4.0%) in drinking water,decreased drastically
same,"effect on the plasma concentration of putrescine, spermidine or spermine","[1]; BNSD-X in drinking water, 96 h",no effect
same,accumulation into erythrocytes,[1]; BNSD-X up to 1.0% in drinking water,did not accumulate into erythrocytes
same,oral absorption,[1]; in drinking water,readily absorbed orally
same,"potentiation of DFMO-induced cytostasis in the absence of exogenous spermidine, CHO-MG",[2],not in the polyamine transport mutant
same,"potentiation of DFMO-induced cytostasis in the absence of exogenous spermidine, CHO-TOR",[3],observed in the parental cell line
same,effect of aminoguanidine addition on the cytotoxicity of the dimer,[4]; 1 mM aminoguanidine,abolished most of the cytotoxicity
same,cytotoxicity in the absence of aminoguanidine,[4]; BSAO active,considerably more cytotoxic than their spermidine-like homologs
